Tests used:
Type in all cases: cell-based
[1] = test system: HMOX-1 mRNA; experiment: HMOX-1 mRNA increase in response to Bach1 siNA in human A549 cells; details: 24 hrs post-transfection, mean ± SD
Protocol: A series of probes and primers were used to detect the various mRNA transcripts of the genes of Bach1, HMOX-1, and GAPDH in mouse and human cell lines. The assays were performed on an ABI 7900 instrument, according to the manufacturer's instructions. A TaqMan Gene Expression Master Mix (provided in the Cells-to-CTT™, Applied Biosystems, Cat # 4399002) was used. The PCR reactions were carried out at 50° C. for 2 min, 95° C. for 20 min followed by 40 cycles at 95° C. for 15 secs and 60° C. for 1 min
All calculations of IC50s were performed using SigmaPlot 10.0 software. The data were analyzed using the sigmoidal dose-response (variable slope) equation for simple ligand binding. In all of the calculations of the % knock-down, the calculation was made relative to the normalized level of expression of the gene of interest in the samples treated with the non-targeting control (Ctrl siNA) unless otherwise indicated.
For the statistical measures of significance for the HMOX-1 mRNA increase in response to Bach1 siNA treatment, a two-tailed Student's t-test on the dCt values for wells treated with the non-targeting control siNA compared with the dCt values for wells treated with the highest concentration of each respective active siNA, was performed.
Various siNAs were also evaluated for their potential to knock-down Bach1 protein. As no validated reagents were available to directly track changes in protein expression, this was done by assessing the increase in HMOX-1 mRNA in response to increasing doses of the active Bach1 siNAs.
The siNAs were tested at a single time point post-transfection (24 hrs). This was the time point at which the Bach1 mRNA levels had previously been determined. The non-targeting control siNA was also tested on each plate of samples and was found, across the six plates to show a maximum of 29±12% increase in the level of HMOX-1.
The comparison of the maximum percentage increase in HMOX-1 and EC50 and the maximum percentage decrease of Bach1 and IC50 are shown in Table 6. Table 6 also includes the measure of statistical significance for the increase in HMOX-1 mRNA levels in response to treatment with the respective Bach1 siNA.

[2] = target: T1, TLR7 (Homo sapiens, UniProt Q9NYK1)
T1 construct: expressed in transfected cells
T1 sequence (Q9NYK1 27-1049): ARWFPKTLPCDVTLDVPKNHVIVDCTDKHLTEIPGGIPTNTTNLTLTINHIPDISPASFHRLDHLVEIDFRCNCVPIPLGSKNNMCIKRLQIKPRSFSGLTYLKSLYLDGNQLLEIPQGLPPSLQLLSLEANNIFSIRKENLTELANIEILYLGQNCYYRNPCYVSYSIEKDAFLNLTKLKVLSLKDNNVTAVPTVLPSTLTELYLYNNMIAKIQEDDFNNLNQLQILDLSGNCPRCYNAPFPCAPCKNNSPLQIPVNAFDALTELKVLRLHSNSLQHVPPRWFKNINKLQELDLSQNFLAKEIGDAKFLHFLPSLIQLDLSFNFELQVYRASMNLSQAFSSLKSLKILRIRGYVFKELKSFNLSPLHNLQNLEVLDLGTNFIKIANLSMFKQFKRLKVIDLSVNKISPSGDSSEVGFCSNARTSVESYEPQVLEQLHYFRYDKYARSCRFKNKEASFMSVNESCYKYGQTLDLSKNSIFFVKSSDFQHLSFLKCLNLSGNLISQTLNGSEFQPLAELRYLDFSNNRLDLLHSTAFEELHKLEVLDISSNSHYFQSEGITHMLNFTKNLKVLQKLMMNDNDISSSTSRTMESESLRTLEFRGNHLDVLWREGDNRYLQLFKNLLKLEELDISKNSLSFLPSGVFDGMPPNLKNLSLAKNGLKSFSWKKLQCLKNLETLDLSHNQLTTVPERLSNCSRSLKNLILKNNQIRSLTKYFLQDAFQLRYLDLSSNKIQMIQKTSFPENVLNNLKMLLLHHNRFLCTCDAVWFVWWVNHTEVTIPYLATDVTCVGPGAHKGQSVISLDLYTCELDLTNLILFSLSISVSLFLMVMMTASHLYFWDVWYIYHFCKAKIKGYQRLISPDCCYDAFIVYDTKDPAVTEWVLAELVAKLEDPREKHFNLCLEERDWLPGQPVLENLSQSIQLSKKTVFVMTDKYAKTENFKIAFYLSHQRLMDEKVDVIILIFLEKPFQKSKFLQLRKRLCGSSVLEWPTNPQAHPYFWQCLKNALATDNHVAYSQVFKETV
Protocol: Human U205-TLR7 and Human U205-TLR8 cells were grown at 37 degrees in the presence of 5% CO2 and were cultured in Dulbeco's modified Eagle's Medium (DMEM), 1% non essential amino acids, supplemented with fetal bovine serum at 10% and 100 ug/ml streptomycin and 100 u/ml penicillin. Stable expression of TLR7 and TLR8 was maintained by the addition of 300 ug/ml […].
TLR7 and TLR8 expressing U2OS osteosarcoma cells were seeded in 96-well plate format at a concentration of 2×10^4 cells/well 24 hours prior to transfection. Cells were transfected with the siNAs using DharmaFECT1 lipid transfection reagent using Resiquimod (R848) and the LyoVec-complexed, GU-rich oligonucleotide ssRNA40 respectively as controls (100 μl/well). (DharmaFECT1 was used as the delivery agent for the siNAs as it combines low immunostimulatory effects with high delivery efficiency.) The treatment media were replaced after 6 hours with antibiotic containing DMEM. Cells were harvested 24 hours following transfection. […] An agonist concentration range of 4-10 μg/ml was established since it caused optimal levels of IL8 mRNA expression for the assay.
TLR7 and TLR8 mediated immunostimulation was measured by the increase in IL8 mRNA levels when the siNAs were formulated with DharmaFect1 (Gibco BRL) and delivered to U2OS cells that were engineered to stably express TLR7 or TLR8. The cells were treated with the TLR7 and TLR8 agonists Resiquimod (R848) and ssRNA40/LyoVec respectively to act as positive controls for IL8 mRNA induction. IL8 mRNA levels were used as a biomarker of TLR7 and TLR8 mediated immunostimulation.

[3] = test system: human GAPDH mRNA transcript; experiment: GAPDH specificity screen in human A549 cells; details: Table 5; 1 nM siNA, STAT 4 as endogenous control, relative to universal control siNA
Protocol: To evaluate the expression level and % knock-down of GAPDH, STAT 4 gene was used as an endogenous control to calculate ΔCt for siNA treated samples and the universal control:
STAT 4 gene was selected as an internal normalizer based on its relatively consistent expression across 49 test samples in three independent experiments. ΔΔCt, Relative expression level and % KD were calculated as described above.
The specificity of these siNAs was also assessed. These siNAs were tested at a lower concentration (1 nM versus the original screening concentration of 10 nM) to determine the effect of the Bach1 siNAs on the mRNA transcript of human GAPDH.

Substance	EC50 [1]	Maximum % Hmox-1 Increase in DRC [1]	Immunostimulation TLR7 mediated in Human U2OS- TLR7 cells IL8 mRNA increase n = 4 individual expts [2]	TLR7 mediated immunostimulatory activity (IL8 mRNA induction) [2]	% KD GAPDH [3]
29947-DC (sense GGAAUCCUGCUUUCAGUUUTT; antisense AAACUGAAAGCAGGAUUCCUU; inverted abasic caps (B), 2'-modified nucleotides, further chemistry not given here)	37.7 ± 21.5 pM	187 ± 71%	No significant effect up to 100 nM	no or very low TLR7 mediated immunostimulatory activity	−15 ± 29%
29956-DC (sense GUCUGAGUGUCCGUGGUUATT; antisense UAACCACGGACACUCAGACUU; inverted abasic caps (B), 2'-modified nucleotides, further chemistry not given here)	30.9 ± 19.9 pM	308 ± 87%	No significant effect up to 100 nM		−18 ± 15%
29957-DC (sense GCAGUUACUUCCACUCAAGTT; antisense CUUGAGUGGAAGUAACUGCUU; inverted abasic end caps, TT overhangs, modified nucleotides, further chemistry not given here)	33.6 ± 20 pM	213 ± 29%	Upregulation up to 100 nM		−10 ± 9%
29961-DC (sense CUACACUGCUAAACUGAUUTT; antisense AAUCAGUUUAGCAGUGUAGUU; inverted abasic end caps, TT overhangs, modified nucleotides, further chemistry not given here)	10.4 ± 10 pM	262 ± 87%	No significant effect up to 100 nM	no or very low TLR7 mediated immunostimulatory activity	7 ± 7%
29964-DC (sense GAUUUGCAGGUGAUGUUAATT; antisense UUAACAUCACCUGCAAAUCUU; inverted abasic end caps, TT overhangs, modified nucleotides, further chemistry not given here)	21.8 ± 15.5 pM	240 ± 30%	No significant effect up to 100 nM	no or very low TLR7 mediated immunostimulatory activity	14 ± 2%
29984-DC (sense GUUAAAGGAUUUGAACCUUTT; antisense AAGGUUCAAAUCCUUUAACUU; inverted abasic end caps, TT overhangs, modified nucleotides, further chemistry not given here)			No significant effect up to 100 nM	no or very low TLR7 mediated immunostimulatory activity	
29988-DC (sense AUUUGAACCUUUAAUUCAGTT; antisense CUGAAUUAAAGGUUCAAAUUU; inverted abasic end caps, TT overhangs, modified nucleotides, further chemistry not given here)	38.2 ± 29.8 pM	190 ± 62%	No significant effect up to 100 nM	no or very low TLR7 mediated immunostimulatory activity	23 ± 5%
